This is an account of results in article PMC9416004, “A Versatile Class of 1,4,4-Trisubstituted Piperidines Block Coronavirus Replication In Vitro” (Pharmaceuticals, 2022).

By EC50 is commonly meant the concentration that produces a half-maximal response.

Series [1] deals with human embryonic lung (HEL) fibroblast cells. To be noted: mock-infected HEL cells; microscopically visible alterations in cell morphology.
A further series deals with HCoV-229E. Put plainly: Cytopathic effect (CPE) reduction assay with HCoV-229E in HEL cells. The series is classed as cell-based, human coronavirus 229E. To be noted: Human coronavirus 229E, 120 h, HCoV-229E-infected HEL cells, five days at 35 °C. On the technique in general: Damage to the host cells serves as the signal in cytopathic effect assays.
Another series is described as follows: in vitro. The conditions noted are these: human.
Where [2] appears, read: protection against virus-induced CPE by MTS cell viability assay, read-out: Antiviral EC50 MTS.
[3] abbreviates: protection against virus-induced CPE by microscopic scoring, read-out: Antiviral EC50 Microscopy.

Read-outs that look alike come from different tables or passages of the source.

`COC(=O)C[C@H](NC(=O)OC(C)(C)C)C(=O)N(Cc1ccc(Cl)cc1)C1(C(=O)NCc2ccccc2)CCN(Cc2ccccc2)CC1` [Compound 25]: the “Cytotoxicity MCC (minimal cytotoxic concentration)” value (“Cytotoxicity MCC” below) in series [1] came out at 50 µM. Moreover, the EC50 was 3.2 ± 0.2 µM in the series with HCoV-229E (setting [2]) and 3.1 µM with HCoV-229E (setting [3]). The CC50 in “in vitro” was determined as 12 µM.
Regarding `COC(=O)C[C@H](NC(=O)OCc1ccccc1)C(=O)N(CCNc1ccccc1)C1(C(=O)NCc2ccccc2)CCN(Cc2ccccc2)CC1` [Compound 57, Methyl(S)-4-((1-benzyl-4-benzylcarbamoylpiperidin-4-yl)(2-(phenylamino)ethyl)amino)-3-benzyloxycarbonylamino-4-oxobutanoate], the “Cytotoxicity MCC” value in series [1] was found to be 40 µM. Besides, the EC50 with HCoV-229E (setting [2]) was 7.1 ± 0.9 µM; in the series on HCoV-229E (setting [3]) it was 10 µM. For the same molecule, in “in vitro”, the CC50 worked out at 51 ± 9 µM.
On the same counts, the results for `COC(=O)C[C@H](NC(=O)OC(C)(C)C)C(=O)NC1(C(=O)NCc2ccccc2)CCN(Cc2ccccc2)CC1` [Compound 18] are no less than 100 µM, greater than 100 µM, 55 ± 16 µM and 48 ± 8 µM.
With `COC(=O)C[C@H](NC(=O)OC(C)(C)C)C(=O)N(Cc1ccccc1)C1(C(=O)NC2CCCCC2)CCN(Cc2ccccc2)CC1` [Compound 16, Methyl(S)-4-(benzyl(1-benzyl-4-cyclohexylcarbamoylpiperidin-4-yl)amino)-3-tert-butoxycarbonylamino-4-oxobutanoate], in series [1], the “Cytotoxicity MCC” value is on record as no less than 40 µM. The 50% effective concentration (EC50) in the series with HCoV-229E (setting [2]) was 10 µM; with HCoV-229E (setting [3]), 16 ± 3 µM. In “in vitro”, this molecule returned a CC50 of 42 ± 4 µM.
As for `COC(=O)C[C@H](NC(=O)OCc1ccccc1)C(=O)N(Cc1ccc(C)cc1)C1(C(=O)NCc2ccccc2)CCN(CCc2ccccc2)CC1` [Compound 59, Methyl(S)-4-((4-benzylcarbamoyl-1-phenethylpiperidin-4-yl)(4-methylbenzyl)amino)-3-benzyloxycarbonylamino-4-oxobutanoate], the “Cytotoxicity MCC” value in series [1] worked out at 16 µM. Further, the figures for the EC50 with HCoV-229E (setting [2]) and in the series on HCoV-229E (setting [3]) were 5.1 ± 1 µM and 8.8 ± 0.7 µM, respectively. Besides, in the series “in vitro”, the CC50 stood at 15 ± 5 µM.
The corresponding values for `CC(C)(C)OC(=O)N[C@@H](CC(N)=O)C(=O)N(Cc1ccccc1)C1(C(=O)NCc2ccccc2)CCN(Cc2ccccc2)CC1` [Compound 42] are 100 µM, 16 ± 3 µM, 13 µM and 40 ± 6 µM.
Take `CC(C)(C)OC(=O)N[C@@H](CC(N)=O)C(=O)N(Cc1ccc(F)cc1)C1(C(=O)NCc2ccccc2)CCN(Cc2ccccc2)CC1` [Compound 41]: in series [1], the “Cytotoxicity MCC” value was greater than 100 µM. Moreover, the EC50 in the series with HCoV-229E (setting [2]) was found to be 64 ± 8 µM; with HCoV-229E (setting [3]), 54 ± 4 µM. In addition, in the series “in vitro”, the CC50 was found to be 82 ± 13 µM.
On the same counts, the results for `COC(=O)C[C@H](NC(=O)OC(C)(C)C)C(=O)N(Cc1ccc(F)cc1)C1(C(=O)NCc2ccccc2)CCN(c2ccccc2)CC1` [Compound 7] are greater than 100 µM, greater than 100 µM, 43 ± 3 µM and greater than 100 µM.
On the same counts, the results for `CCC(C)N(C(=O)[C@H](CC(=O)OC)NC(=O)OC(C)(C)C)C1(C(=O)NCc2ccccc2)CCN(Cc2ccccc2)CC1` (stereo partly shown) [Compound 20] are 100 µM, 13 ± 1 µM, 14 ± 1 µM and 31 ± 3 µM.
In the case of `COC(=O)CCC(=O)N(Cc1ccc(F)cc1)C1(C(=O)NCc2ccccc2)CCN(Cc2ccccc2)CC1` [Compound 30], the “Cytotoxicity MCC” value in series [1] amounted to 100 µM. The 50% effective concentration (EC50) in the series on HCoV-229E (setting [2]) came out at 13 ± 2 µM; in the series on HCoV-229E (setting [3]) it was 13 µM. This molecule also gave a CC50 in the series “in vitro” of 64 ± 3 µM.
